Source: ChEMBL document CHEMBL1144966, “Both 5-arylidene-2-thioxodihydropyrimidine-4,6(1H,5H)-diones and 3-thioxo-2,3-dihydro-1H-imidazo[1,5-a]indol-1-ones are light-dependent tumor necrosis factor-alpha antagonists” (Bioorg Med Chem Lett, 2003)

Target: T1, Tumor necrosis factor receptor superfamily member 1A (Homo sapiens) (UniProt P19438)
T1 sequence (whole entry): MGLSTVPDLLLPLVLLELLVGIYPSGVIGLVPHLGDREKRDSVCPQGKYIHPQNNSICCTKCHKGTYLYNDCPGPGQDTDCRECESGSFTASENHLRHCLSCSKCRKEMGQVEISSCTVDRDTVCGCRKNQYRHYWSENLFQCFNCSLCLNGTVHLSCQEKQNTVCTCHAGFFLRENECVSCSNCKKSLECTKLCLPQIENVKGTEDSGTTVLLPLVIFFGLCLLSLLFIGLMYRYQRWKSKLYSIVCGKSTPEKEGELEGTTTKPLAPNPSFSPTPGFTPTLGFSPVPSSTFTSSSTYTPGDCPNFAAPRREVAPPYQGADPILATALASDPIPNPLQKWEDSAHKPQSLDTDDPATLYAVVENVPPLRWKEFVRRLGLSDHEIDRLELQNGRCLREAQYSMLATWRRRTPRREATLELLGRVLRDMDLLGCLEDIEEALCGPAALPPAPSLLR
Experiment: Compound was tested for inhibition of TNF-alpha binding to TNFRc1 at a concentration of 10 uM

SMILES | inhibition [%]
CCN1C(=O)C(=Cc2ccccn2)C(=O)N(CC)C1=S | 0
CCN1C(=O)C(=Cc2cc(Br)cs2)C(=O)N(CC)C1=S | 2
CCN1C(=O)C2Cc3c(OC)cc(OC)cc3N2C1=S (centres undefined) | 0
C=CCN1C(=O)c2cc3cc(Cl)ccc3n2C1=S | 17
CCN1C(=O)C(=Cc2cccnc2)C(=O)N(CC)C1=S | 0
C=CCN1C(=O)c2cc3cc(OC)c(OC)cc3n2C1=S | 53
CCN1C(=O)/C(=C/c2c[nH]c3ccccc23)SC1=S | 40
CCN1C(=O)C(=Cc2ccc3ccccc3n2)C(=O)N(CC)C1=S | 0
C=CCN1C(=O)c2cc3cc(OCc4ccccc4)ccc3n2C1=S | 46
CCN1C(=O)c2cc3ccccc3n2C1=S | 27
C=CCN1C(=O)c2c(C)c3c(OC)cc(OC)cc3n2C1=O | 0
CCN1C(=O)c2cc3c(OC)cc(OCC(=O)O)cc3n2C1=S | 42
C=CCN1C(=O)c2cc3c(OC)cc(OC)cc3n2C1=O | 0
CCN1C(=O)C(=Cc2ccncc2)C(=O)N(CC)C1=S | 0
CCN1C(=O)C(=Cc2ccc(-c3cc(C(F)(F)F)nn3C)s2)C(=O)N(CC)C1=S | 33
COc1cc(OC)c2c(C)c3n(c2c1)C(=O)CN(Cc1ccccc1)C3=O | 0
CCN1C(=O)C(=Cc2cc([N+](=O)[O-])cs2)C(=O)N(CC)C1=S | 0
CCN1C(=O)C(=Cc2cnc3ccccc3c2)C(=O)N(CC)C1=S | 0
CCN1C(=O)C(=Cc2cn(C(C)=O)c3ccccc23)C(=O)N(CC)C1=S | 15
C=CCN1C(=O)c2c(C)c3c(OC)cc(OC)cc3n2/C1=N/C#N | 19
O=C1C(=Cc2c[nH]c3ccccc23)C(=O)N(c2ccccc2)C(=S)N1c1ccccc1 | 9

Target: T2, Tumor necrosis factor receptor superfamily member 1A (Homo sapiens, UniProt P19438)
T2 sequence (P19438 whole entry): T1 sequence (whole entry)
Experiment: Inhibition of TNF-alpha binding to TNFRc1

SMILES | IC50 [nM]
CCN1C(=O)C(=Cc2cn(C)c3ccccc23)C(=O)N(CC)C1=S | 130
C=CCN1C(=O)c2cc3c(OC)cc(OC)cc3n2C1=S | 280
COC(=O)c1sccc1-c1ccc(C=C2C(=O)N(c3ccccc3)C(=S)N(c3ccccc3)C2=O)o1 | 40000
CCN1C(=O)C(=Cc2c[nH]c3ccc(OCc4ccccc4)cc23)C(=O)N(CC)C1=S | 400
CCN1C(=O)c2cc3c(OC)cc(OCc4ccccn4)cc3n2C1=S | 310
CCN1C(=O)C(=Cc2ccc(-c3ccsc3C(=O)OC)o2)C(=O)N(CC)C1=S | 2800
CCN1C(=O)C(=Cc2c[nH]c3c(C)cccc23)C(=O)N(CC)C1=S | 600
C=CCN1C(=O)n2c(c(C)c3c(OC)cc(OC)cc32)C1=S | 210
CCN1C(=O)C(=Cc2ccc(C)s2)C(=O)N(CC)C1=S | 3400
Cc1ccccc1N1C(=O)/C(=C/c2c[nH]c3ccccc23)C(=O)NC1=S | 1800
COc1cc(OC)c2cc3n(c2c1)C(=S)N(CCc1ccccc1)C3=O | 1900
CN1C(=O)C(=Cc2c[nH]c3ccccc23)C(=O)N(C)C1=S | 13000
C=CCN1C(=O)c2c(C)c3c(OC)cc(OC)cc3n2C1=S | 1100
CCN1C(=O)c2cc3c(OC)cc(OC)cc3n2C1=S | 1000
Cc1ccccc1N1C(=O)C(=Cc2c[nH]c3ccccc23)C(=O)N(c2ccccc2C)C1=S | 790
CCN1C(=O)C(=Cc2c[nH]c3ccccc23)C(=O)N(CC)C1=S | 1000
C=CCN1C(=O)c2cc3ccc(OC)cc3n2C1=S | 1700

SMILES | IC50 [nM]
C=CCN1C(=S)c2c(C)c3c(OC)cc(OC)cc3n2C1=S | 210
CCN1C(=O)C(=Cc2sccc2C)C(=O)N(CC)C1=S | 14100
CCN1C(=O)C(=Cc2c[nH]c3ccc([N+](=O)[O-])cc23)C(=O)N(CC)C1=S | 5500
CCN1C(=O)C(=Cc2ccc(-c3ccccc3C(F)(F)F)o2)C(=O)N(CC)C1=S | 2000
CCN1C(=O)/C(=C/c2ccc(-c3ccsc3C(=O)OC)o2)SC1=S | 300
CCN1C(=O)/C(=C/c2ccc(-c3cc(C(F)(F)F)nn3C)s2)SC1=S | 140
CCN1C(=O)c2cc3c(OC)cc(OCOC)cc3n2C1=S | 280
CCN1C(=O)c2cc3c(OC)cc(OCC(=O)OC(C)(C)C)cc3n2C1=S | 390
C=CCN1C(=O)c2cc3c(OC)cccc3n2C1=S | 2100
COc1cc(OC)c2cc3n(c2c1)C(=S)N(CCCN1CCOCC1)C3=O | 670
CCN1C(=O)C(=Cc2cc3ccccc3[nH]2)C(=O)N(CC)C1=S | 10200
C=CCN1C(=O)n2c(cc3c(OC)cc(OC)cc32)C1=S | 610
CCN1C(=O)/C(=C/c2ccc(-c3ccccc3C(F)(F)F)o2)SC1=S | 320
CCN1C(=O)C(=Cc2ccc(Br)s2)C(=O)N(CC)C1=S | 4500
O=C1C(=Cc2ccc(-c3ccccc3C(F)(F)F)o2)C(=O)N(c2ccccc2)C(=S)N1c1ccccc1 | 11000
C=CCN1C(=O)c2cc3c(OC)c(OC)c(OC)cc3n2C1=S | 780
